In patent US8492614B2, “Plant biochemical systems and uses thereof” (The Board of Trustees of the University of Illinois, priority 2007, dated 2013):
“Also recorded” adds a separate entry of the source. Read-outs that look alike come from different tables or passages of the source.

Assays:
[1] = Stability of absorbance spectra of cell free extracts with or without phenylalanine; format: physicochemical, Arabidopsis; conditions: for stability of the extract solution (absorbance spectra, pigments) over time: cell free extracts in buffer, 24 h, room temperature or +4° C., lab lighting
Protocol: Cell free extracts were left at room temperature for 24 h after a 10^5 μmol m^−2 treatment of UV (366 nm) in lab lighting (which is fluorescent).

[2] = system: etiolated Arabidopsis gcr1, gpa1 or pd1 mutants; assay: UV sensitivity of etiolated Arabidopsis mutants with phenylalanine added to the growth media; format: in vivo
soybean = assay: Long-term growth and seed yield of UV-treated soybean supplemented with Phe; format: in vivo, soybean (Glycine max L.); conditions: Phe supplement before UV (300 nm) on day 3, grown to seed set
Protocol: Referring to FIG. 22, it was shown that treating soybean with Phe reverses the negative effects of UV-radiation. Seedlings were grown identically to that described for FIGS. 13 and 14, where soybean were supplemented with Phe (+Phe) or not (−Phe). Soybean were grown to seed set in greenhouse conditions where growth characteristics and evaluation of pods and seeds occurred during and after ripening.

[3] = pH 7.4
Japanese beetles = assay: Predation on Harosoy soybean grown outside, with or without Phe in the planting media; format: in vivo; conditions: 1 mM Phe in planting media; 300 nm or no light on day 3; 21 d outside; listed as Phe
Protocol: As Phe is the starting substrate of the phenylpropanoid pathway it may be that inclusion of Phe in the growth media of young seedlings allows for the synthesis of many phenylpropanoids in addition to those that can act as UV-B screening pigments, and thereby prevent the deleterious effects other abiotic and biotic stress. To test this hypothesis we planted sets of seeds of Harosoy dense and Harosoy glabrous. Planting media for one set of plants of each isoline was supplemented with 1 mM final concentration of Phe. Three d after planting, germinating sets of seedlings were irradiated with a low fluence pulse of 300 nm (i.e. an abiotic stress), or no light (Untreated), then transplanted outside to grow in natural conditions for 21 d during the normal growing season. A random planting pattern for was generated for the six One leaf from the first set of leaves and one leaf (the middle of the trifoliate) from the second set of leaves was harvested on day 21. These leaves were each weighed directly (fresh weight) and scanned to have a pictorial representation of the experienced damage as shown in FIG. 28. […] Comparison among the six variations indicates predation mainly on the glabrous (hairless) plants.

[4] = system: etiolated soybean seedlings; assay: Soybean seedlings irradiated with low fluence UV, grown with or without phenylalanine in the growth media; format: in vivo, soybean (Glycine max L.); conditions: for protection from the effects of high energy UV (lack of seed development, seed death): 1 mM phenylalanine in growth media, low fluence 300, 305, 311 or 317 nm on day 3 after planting
Source text: Three varieties, Williams, Forrest, and Williams 82, serve as the progenitor germplasms used in many US soybean breeding programs. These germplasms were used in the experiments described in the Examples, and representative data is shown. In general soybean experiments are done using etiolated seedlings irradiated 3 days after planting or 7 days after planting, in contrast to the regime (6 days dark growth) used for Arabidopsis experiments. For the soybean experiments we have used a high intensity light source filtered through narrow band pass for a low fluence radiation dose of (10^4 μmol m^−2), with (10 nm half band width) filters of peak pass-through at 300, 305, 311, 317, 325, 332 and 368 nm. Soybean primary leaves are sensitive to UV, with the greatest damage occurring in response to irradiation with the greatest energy (smallest wavelength). Three day old etiolated wild type Williams, Forest and Williams 82 soybean seedlings of were individually irradiated with a single low fluence pulse of 300, 305, 311, 317, 325, 332, 368 nm or no light (as a control). After irradiation seedlings were maintained in a summer day-night cycle (14 hr white light: 10 hr dark) to allow for photoreactivation and other forms of light mediated repair until day 8. Irradiation with 300, 305 or 311 nm light results in a “severe” damage with a greater then 70% mortality rate by day 8 (FIGS. 9,10). Irradiation with 317 or 325 nm results in a ‘moderate’ response, with a mortality of approximately 20%. […] Seedlings irradiated with 300, 317 or 368 nm light, or no UV light (as a control) were assessed 3, 7, 14, 21 and 28 days post planting. […] The very young seedlings were able to use the phenylalanine in the growth media to supplement the limiting amounts available in the seed to produce a larger quantity of UV screening pigments, and perhaps other compounds important to UV protection, thereby protecting themselves against the UV itself and perhaps enacting enhanced repair functions after the UV irradiation. […]

In the case of `N[C@@H](Cc1ccccc1)C(=O)O` [phenylalanine], the “stability of the extract solution (absorbance spectra, pigments) over time” value [1] is reported as “remain stable over time; also recorded: clear difference in stability in the solution when phenylalanine is added”, the “stability of the extract solution (absorbance spectra, pigments) over time” value ([1]; listed as Phenylalanine) is reported as “remained stable” and the “deviation from initial 24 h post absorbance spectra” value ([1]; extracts with phenylalanine added, UV (366 nm) treated, stored at +4° C. for 4 days) is reported as “less than 10%”. The “rescue of UV sensitivity of mutants” value [2] was “can rescue gcr1, gpa1 or pd1 mutants”, the “rescue of UV sensitivity of mutants” value ([2]; listed as Phe) was “restores waxes, fatty acids, UV-absorbing materials and restores resistance to UV damage in pd1 mutants; also recorded: able to respond to UV like wild type” and the “long-term growth, seed set and seed yield after UV treatment” value (soybean) was “can reverse the negative effect on yield of UV; also recorded: serves a protective role to the plant in permitting the plant to achieve adult stage and seed set”. The “long-term growth, seed set and seed yield after UV treatment” value (soybean; listed as Phe) was “indistinguishable from untreated seedlings; also recorded: reversal of the negative effects of UV-radiation”, the “degradation in buffered solution” value [3] was “appeared to not degrade even for days” and the predation on leaves (Japanese beetles) was “experienced less predation; also recorded: can be reduced”. The “growth characteristics after UV irradiation” value ([4]; 1.0 mM Phe in growth media, seven d post-irradiation) was “restores growth characteristics regardless of UV wavelength”, the “protection from the effects of high energy UV (lack of seed development, seed death)” value [4] was “able to ameliorate the most negative of the effects of high energy UV” and the “protection from the effects of high energy UV (lack of seed development, seed death)” value ([4]; listed as Phe) was “can overcome the most deleterious effects of high energy UV in soybean”.
